{"source": "ChEMBL document CHEMBL1201862", "about": "“PubChem BioAssay data set” (2004)", "key": {"[1]": {"assay": "cells", "assay_type": "functional, cell-based"}, "[2]": {"assay": "THP-1 cell cytotoxicity, dose response, cytotoxicity control for non-replicating M. tuberculosis project (AID 489025)", "assay_type": "functional"}, "[3]": {"assay": "cells", "assay_type": "functional"}, "[4]": {"assay": "cells", "assay_type": "functional, cell-based", "remark": "listed apart in the source"}, "[5]": {"system": "INS1", "assay": "beta cell apoptosis inhibitors, cytokine rescue, dose response, luminescence, retest (AID 449756);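 also: cell death triggered by IL-1 beta plus TNF-alpha plus IFN-gamma mixture; protective hits raise ATP signal compared with cytokine alone wells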", "assay_type": "functional, cell-based", "conditions": "Rattus norvegicus, INS1"}, "[6]": {"assay": "A Cell Based Secondary Assay To Explore Cytotoxicity of Compounds that Sensitize Mycobacterium Tuberculosis to Beta-Lactam Antibiotics.", "assay_type": "functional"}, "[7]": {"system": "H4", "assay": "Luminescence Cell-Based Dose Response HTS to Identify Activators of 5'UTR Stem-Loop Driven Prion Protein mRNA Translation in H4 Neuroglioblastoma Cells. [Related pubchem assays: 1829 (Project Summary), 1814 (Primary HTS)]", "assay_type": "functional", "conditions": "Homo sapiens"}, "[8]": {"assay": "Luminescence Cell-Based Dose Response HTS to Identify Activators of Luciferase Translation or Activity in H4 […] Cells. [Related pubchem assays: 1829 (Project Summary), 1814 (Primary HTS)]", "assay_type": "functional"}, "[9]": {"assay": "Luminescence Cell-Based Dose Confirmation HTS to Identify Activators of 5'UTR Stem-Loop Driven Alpha-Synuclein mRNA Translation in H4 Neuroglioblastoma Cells. [Related pubchem assays: 1829 (Project Summary), 1814 (Primary HTS)]", "assay_type": "functional"}, "[10]": {"assay": "cytotoxicity toward NIH3T3 fibroblasts, dose response, counter-screen, cell-based, ATP luminescence, mouse fibroblasts (AID 2010);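 also: cells exposed to compound for about 90 hours before reading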", "assay_type": "functional"}, "[11]": {"assay": "inhibitors of intracellular T. cruzi replication, confirmation, NIH3T3 host cells, beta-gal luminescence (AID 2044);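 also: luminescent beta-galactosidase reporter signal from transgenic T. cruzi replicating inside host cells; inhibitors lower the luminescence signal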", "assay_type": "functional, cell-based"}, "[12]": {"target": "DNA damage-inducible transcript 3 protein (Mus musculus, UniProt P35639)", "sequence (P35639 whole entry)": "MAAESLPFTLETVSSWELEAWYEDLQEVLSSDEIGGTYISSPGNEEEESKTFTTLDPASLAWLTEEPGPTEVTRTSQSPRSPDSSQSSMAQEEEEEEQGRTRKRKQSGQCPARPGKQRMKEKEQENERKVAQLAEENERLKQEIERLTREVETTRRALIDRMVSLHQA", "assay_type": "functional, Cricetulus griseus"}, "[13]": {"target": "T1, Streptokinase A (Streptococcus pyogenes serotype M1, UniProt P10520)", "T1 sequence (P10520 whole entry)": "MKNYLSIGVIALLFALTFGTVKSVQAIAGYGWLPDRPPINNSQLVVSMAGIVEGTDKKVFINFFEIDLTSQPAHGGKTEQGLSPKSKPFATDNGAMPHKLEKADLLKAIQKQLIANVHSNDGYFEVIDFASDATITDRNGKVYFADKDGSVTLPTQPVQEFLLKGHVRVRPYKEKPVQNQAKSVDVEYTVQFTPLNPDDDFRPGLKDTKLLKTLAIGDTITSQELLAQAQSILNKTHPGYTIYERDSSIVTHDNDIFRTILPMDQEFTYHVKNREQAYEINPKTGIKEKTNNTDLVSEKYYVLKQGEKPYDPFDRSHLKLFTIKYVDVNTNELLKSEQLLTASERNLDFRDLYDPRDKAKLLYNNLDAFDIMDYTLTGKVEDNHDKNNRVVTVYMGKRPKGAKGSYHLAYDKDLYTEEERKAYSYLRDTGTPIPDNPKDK", "assay": "S. pyogenes streptokinase expression inhibitors, potency, dose response, plasminogen activation absorbance, OD405 (AID 1914);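 also: secreted streptokinase activity via plasminogen activation per viability signal from cell pellet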", "assay_type": "functional, Streptococcus pyogenes M1 GAS"}, "[14]": {"assay": "microbe, parasite or virus in culture", "assay_type": "functional", "conditions": "Mycobacterium tuberculosis"}, "[15]": {"system": "Streptococcus", "assay": "Group A Streptococcus viability loss, dose response, counter-screen for streptokinase expression inhibitor project, luminescence, BacTiterGlo (AID 1915);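 also: potency for reduction of bacterial viability or growth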", "assay_type": "functional, organism-based"}, "[16]": {"system": "Streptococcus sp. 'group A'", "assay": "growth inhibition of control SK(-) GAS strain, dose response, counter-screen for streptokinase expression inhibitor project, luminescence, kanamycin, BacTiterGlo, confirmation (AID 1900)", "assay_type": "functional, organism-based"}, "[17]": {"target": "T2, Microphthalmia-associated transcription factor (Homo sapiens, UniProt O75030)", "T2 sequence (O75030 whole entry)": "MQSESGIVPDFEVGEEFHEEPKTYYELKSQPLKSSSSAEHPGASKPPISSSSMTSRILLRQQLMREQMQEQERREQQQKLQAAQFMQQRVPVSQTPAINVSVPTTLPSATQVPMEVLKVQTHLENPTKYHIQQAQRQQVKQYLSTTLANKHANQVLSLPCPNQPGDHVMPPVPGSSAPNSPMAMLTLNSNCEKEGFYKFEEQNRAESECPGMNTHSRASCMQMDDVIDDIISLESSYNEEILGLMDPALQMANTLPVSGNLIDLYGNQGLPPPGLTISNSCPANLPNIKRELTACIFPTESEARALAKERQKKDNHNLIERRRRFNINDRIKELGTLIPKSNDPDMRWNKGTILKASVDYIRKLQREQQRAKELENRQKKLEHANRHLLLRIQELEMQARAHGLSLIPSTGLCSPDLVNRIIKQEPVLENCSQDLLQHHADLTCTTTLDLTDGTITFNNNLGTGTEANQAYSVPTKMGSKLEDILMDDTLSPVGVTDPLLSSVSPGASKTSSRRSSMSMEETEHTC", "assay": "TRPM1 promoter luciferase signal decrease, dose response, MITF inhibitor project, cell-based, SK-MEL-5, cherry-picked, set 3 (AID 493073)", "assay_type": "functional"}, "[18]": {"target": "T3, Rac GTPase-activating protein 1 (Homo sapiens, UniProt Q9H0H5)", "T3 sequence (Q9H0H5 whole entry)": "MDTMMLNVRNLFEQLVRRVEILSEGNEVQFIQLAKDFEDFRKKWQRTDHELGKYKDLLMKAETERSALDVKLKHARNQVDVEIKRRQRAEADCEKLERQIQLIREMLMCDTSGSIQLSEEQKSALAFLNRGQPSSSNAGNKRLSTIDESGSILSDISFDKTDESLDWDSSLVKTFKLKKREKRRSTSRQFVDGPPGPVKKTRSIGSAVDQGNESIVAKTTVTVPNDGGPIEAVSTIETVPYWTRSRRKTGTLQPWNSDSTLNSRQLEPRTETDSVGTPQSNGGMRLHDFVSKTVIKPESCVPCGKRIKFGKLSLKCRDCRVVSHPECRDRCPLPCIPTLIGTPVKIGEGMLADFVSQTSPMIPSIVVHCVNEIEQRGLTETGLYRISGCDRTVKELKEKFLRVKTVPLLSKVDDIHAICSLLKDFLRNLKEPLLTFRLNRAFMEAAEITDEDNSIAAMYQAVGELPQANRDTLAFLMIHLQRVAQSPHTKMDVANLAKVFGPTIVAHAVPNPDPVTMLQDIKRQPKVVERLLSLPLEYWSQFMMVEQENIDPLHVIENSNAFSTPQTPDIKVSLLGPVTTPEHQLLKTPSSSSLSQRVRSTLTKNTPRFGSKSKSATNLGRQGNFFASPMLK", "assay": "MgcRacGAP GTPase-activating activity inhibitors, confirmation, biochemical, ADP Hunter fluorescence, primary and confirmatory (AID 624330)", "assay_type": "functional"}, "[19]": {"target": "T4, Ubiquitin-conjugating enzyme E2 N (Homo sapiens, UniProt P61088)", "T4 sequence (P61088 whole entry)": "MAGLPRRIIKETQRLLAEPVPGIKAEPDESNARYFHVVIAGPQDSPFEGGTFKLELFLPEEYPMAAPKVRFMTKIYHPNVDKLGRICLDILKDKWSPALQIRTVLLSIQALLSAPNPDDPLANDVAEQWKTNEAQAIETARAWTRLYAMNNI", "assay_type": "functional"}, "[20]": {"target": "T5, Bcl-2-related protein A1 (Mus musculus, UniProt Q07440)", "T5 sequence (Q07440 whole entry)": "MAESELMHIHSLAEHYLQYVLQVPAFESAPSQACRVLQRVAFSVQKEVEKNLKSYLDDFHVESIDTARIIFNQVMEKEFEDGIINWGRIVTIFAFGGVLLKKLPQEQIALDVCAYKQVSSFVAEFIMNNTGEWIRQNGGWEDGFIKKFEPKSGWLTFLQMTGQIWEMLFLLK", "assay_type": "functional"}}, "note": "The source made the active and inactive calls."}
{"smiles": "COc1cccc(CN2CCC(N(CCc3ccccc3)Cc3ccccc3)CC2)c1OC", "values": [{"measurement": "EC50", "setting": "[1]", "result": "> 350 µM (not active)"}, {"measurement": "CC50", "setting": "[2]", "result": "> 40 µM (active)"}, {"measurement": "IC50", "setting": "[3]", "result": "25.2 µM (active)"}, {"measurement": "EC50", "setting": "[4]", "result": "> 350 µM (not active)"}, {"measurement": "AC50", "setting": "[5]", "result": "11.4 µM (active)"}]}
{"smiles": "CCOC(=O)c1sc2ccccc2c1NC(=O)c1coc2ccccc2c1=O", "values": [{"measurement": "CC50", "setting": "[6]", "result": "> 40 µM (active)"}, {"measurement": "EC50", "setting": "[7]", "result": "> 120 µM (not active)"}, {"measurement": "EC50", "setting": "[8]", "result": "16.9 µM (active)"}, {"measurement": "EC50", "setting": "[9]", "result": "> 120 µM (not active)"}]}
{"smiles": "CCOc1ccc2nc(NC(=O)CSc3nnnn3C3CCCCC3)sc2c1", "values": [{"measurement": "EC50", "setting": "[10]", "result": "> 30 µM (not active)"}, {"measurement": "EC50", "setting": "[11]", "result": "2.14 µM (active)"}, {"measurement": "Absolute IC50 (CHOP)", "setting": "[12]", "result": 10, "unit": "µM"}]}
{"smiles": "Cc1cc(N2CCC(C)CC2)nc(-n2nc(C)cc2C)n1", "values": [{"measurement": "EC50", "setting": "[13]", "result": "> 150 µM (not active)"}, {"measurement": "CC50", "setting": "[14]", "result": "> 40 µM (active)"}, {"measurement": "CC50", "setting": "[2]", "result": "> 40 µM (active)"}, {"measurement": "EC50", "setting": "[15]", "result": "> 150 µM (not active)"}, {"measurement": "IC50", "setting": "[3]", "result": "0.15 µM (active)"}, {"measurement": "EC50", "setting": "[16]", "result": "7.26 µM (active)"}]}
{"smiles": "CCc1ccc(N2NC(=O)/C(=C/C=C/c3ccco3)C2=O)cc1", "values": [{"measurement": "EC50", "setting": "[7]", "result": "14.3 µM (active)"}, {"measurement": "EC50", "setting": "[8]", "result": "48 µM (active)"}, {"measurement": "CC50", "setting": "[2]", "result": "> 40 µM (active)"}, {"measurement": "IC50", "setting": "[3]", "result": "12.1 µM (active)"}, {"measurement": "EC50", "setting": "[9]", "result": "14.8 µM (active)"}]}
{"smiles": "COc1ccc(NC(C)C(=O)N/N=C/c2ccc([N+](=O)[O-])s2)cc1", "note": "(stereo not given)", "values": [{"measurement": "EC50", "setting": "[10]", "result": "> 60 µM (inconclusive)"}, {"measurement": "CC50", "setting": "[6]", "result": "21.8 µM (active)"}, {"measurement": "EC50", "setting": "[11]", "result": "0.414 µM (active)"}, {"measurement": "AC50", "setting": "[17]", "result": "15.8 µM (active)"}]}
{"smiles": "C#CCOCCOCCOCCNc1nc(N2CCN(C(=O)C([C@@H](C)O)n3cc([C@@H](N)CCCCN)nn3)CC2)nc(N2CCN(C(=O)[C@H](CCCCN)n3cc(CN)nn3)CC2)n1", "note": "(stereo not given in full)", "values": [{"measurement": "IC50", "setting": "[18]", "result": "171 µM (active)"}, {"measurement": "IC50", "setting": "[19]", "result": "3.7 µM (active)"}, {"measurement": "IC50", "setting": "[20]", "result": "> 20 µM (inactive)"}]}
